Tests used:
rats subjected to tMCAo = assay: 24-point neurofunctional scale after 2 hr tMCAo, monitored for 21 days; assay type: in vivo, rat
Experimental: The efficacy of Pent-XBIR3 to prevent sensory-motor disability caused by stroke was tested by giving rats either a prophylatic (pre-occlusion) or therapeutic (4 hours post reperfusion) intranasal bolus of vehicle or Pent-XBIR3 (prepared and administerd as described in section 6.8, below). Rodents were assayed with a 24-point neurofunctional scale starting at 1 day post-ischemia with testing every other day for 3 weeks after the ischemic event.
Intranasal Delivery of Pen1-XBIR3. While under isofluorane anesthesia and lying on their backs, Pen1-XBIR3 (36.8 μM) was delivered to rats by administering 6 μl drops to alternating nares every two minutes for 20 minutes (60 μl total delivered). (Thorne, et al., Neuroscience 127 (2), 481-496 (2004)). Intranasal treatment was done prior to induction of stroke. Saline was used as a negative control. Brains were harvested for immunohistochemistry or western blotting.

[1] = system: hippocampal neuronal cultures; assay: Neuronal survival assay, 4-hydroxynonenal (HNE) mediated death; assay type: cell-based, rat; conditions: HNE 3 μM, Pen1-XBIR3 80 nM, 1 day
Description: (Davidson, et al., J Neurosci 24 (45), 10040-10046 (2004)). Upon entry into the cell the disulfide linkage is broken by the reducing environment of the cytoplasm, releasing the peptide cargo and allowing it to act at its target. Functional efficacy of this construct was confirmed using hippocampal neuronal cultures that were subjected to 4-hydroxynonenal (HNE) mediated death, a caspase-9 dependent death. (Rabacchi, et al., Neurobiol Aging 25 (8), 1057-1066 (2004)). […] To ensure that a Pen1-peptide could be delivered to the brain, Pen1 was linked to a FITC-labeled control peptide and delivered to the striatum using convection enhanced delivery (CED). Brains were harvested 24 hr after delivery, sectioned, and imaged. […] Pent-XBIR3 was delivered to the striatum 1 hr prior to tMCAo using ICC. Animals were harvested at 24 hpr and immunostained for caspase-9 and c1-C6. […] Thus, caspase-9 activity was necessary for activation of caspase-6 in neuron soma and processes following a transient ischemic event in rats.
Rat Hippocampal cultures. […]
Neuronal survival assay. […] After 1 day of treatment cells number was quantified as previously described. […] Briefly, the cells were lysed in counting buffer and intact nuclei were counted using a hemocytometer. […]

Pen1-XBIR3: BIR3 domain from XIAP, a specific caspase-9 inhibitor, disulfide-linked to Penetratin1 cell transduction peptide (SEQ ID NO: 10)
neurofunctional score (stroke related disability) (rats subjected to tMCAo; prophylactic (pre-occlusion) intranasal bolus): less stroke related disability
neurofunctional score (stroke related disability) (rats subjected to tMCAo; therapeutic (4 hours post reperfusion) intranasal bolus): functional recovery up to 21 d
neurofunctional score (stroke related disability) (rats subjected to tMCAo; therapeutic (4 hours post reperfusion) intranasal bolus, listed as Pent-XBIR3): less stroke related disability
neuronal death / survival [1]: abrogated death

Reference: patent publication US20200164026A1, “Intranasal Delivery of Cell Permeant Therapeutics” (The Trustees of Columbia University in the City of New York, priority 2010, published 2020)
